# Measured values from US20250326744A1, “PIPERAZINE DERIVATIVE OR SALT THEREOF, AND PHARMACEUTICAL COMPOSITION” (priority 2022, published 2025).
# Where a name gives a salt, the structure may show the parent alone.
# Tests used:
# mexB (PA) strain = experiment: Combinational effect with antibacterial agent against Pseudomonas aeruginosa (Test Examples 2 and 4): mexB (PA) strain with LVFX, TC or AZT at 1/4 MIC, EC99; type: cell-based; conditions: Table 52, Test Example 2, 16 to 20 hours culture, OD595; for EC99, mexB (PA), AZT: combined with AZT at 1/4 MIC; for EC99, mexB (PA), LVFX: combined with LVFX at 1/4 MIC; for EC99, mexB (PA), TC: combined with TC at 1/4 MIC
# How it was run: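 P. aeruginosa mexB (PA) strain, lacking MexCD-OprJ, MexEF-OprN and MexXY and overexpressing MexAB-OprM, grown 16–20 h in CAMHB (10^4–5 CFU/well) with LVFX, TC or AZT at ¼ MIC plus test compound at 0–800 μM. Growth read as OD595; EC99 is the lowest compound concentration giving ≥99% growth inhibition.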
# S-3769 strain = experiment: Combinational effect with antibacterial agent against Pseudomonas aeruginosa (Test Examples 2 and 4): S-3769 strain with AMK or GM at 1/4 MIC, EC99; type: cell-based; conditions: Table 52, Test Example 2, 16 to 20 hours culture, OD595; for EC99, S-3769 strain, AMK: combined with AMK at 1/4 MIC; for EC99, S-3769 strain, GM: combined with GM at 1/4 MIC
# How it was run: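 P. aeruginosa S-3769 (clinical isolate, MexY overexpressed) grown 16–20 h in CAMHB, 10^4 to 5 CFU/well, with AMK or GM at ¼ MIC plus test compound 0–800 μM. Growth read as OD595; EC99 is the lowest compound concentration giving ≥99% growth inhibition.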
SMILES,"EC99, mexB (PA), AZT (mexB (PA) strain)","EC99, mexB (PA), LVFX (mexB (PA) strain)","EC99, mexB (PA), TC (mexB (PA) strain)","EC99, S-3769 strain, AMK (S-3769 strain)","EC99, S-3769 strain, GM (S-3769 strain)"
"CCOc1cccc(F)c1CN1CCN(C(=O)[C@H](N)C2CCN(CCc3cc(Cl)ccc3-c3ccccc3OC)CC2)CC1 [Example 76, Hydrobromide of (R.)-2-amino-2-(1-(2-(4-chloro-2′-methoxy-[1,1′-biphenyl]-2-yl)ethyl)piperidin-4-yl)-1-(4-(2-ethoxy-6-fluorobenzyl)piperazin-1-yl)ethan-1-one]",A (12.5 μM<EC99≤25 μM),B (25 μM<EC99≤100 μM),B (25 μM<EC99≤100 μM),A (12.5 μM<EC99≤25 μM),A (12.5 μM<EC99≤25 μM)
"CCOc1cccc(F)c1CN1CCN(C(=O)[C@H](N)C2CCN(CCc3cc(Cl)ccc3C3CC3)CC2)CC1 [Example 78, Hydrobromide of (R)-2-amino-2-(1-(5-chloro-2-cyclopropylphenethyl)piperidin-4-yl)-1-(4-(2-ethoxy-6-fluorobenzyl)piperazin-1-yl)ethan-1-one]",B (25 μM<EC99≤100 μM),C (100 μM<EC99),B (25 μM<EC99≤100 μM),S (EC99≤12.5 μM),S (EC99≤12.5 μM)
"CCOc1cccc(F)c1CN1CCN(C(=O)[C@H](N)C2CCN(CCc3c(-c4ccccc4)ccc(Cl)c3F)CC2)CC1 [Example 79, Hydrobromide of (R)-2-amino-2-(1-(2-(4-chloro-3-fluoro-[1,1′-biphenyl]-2-yl)ethyl)piperidin-4-yl)-1-(4-(2-ethoxy-6-fluorobenzyl)piperazin-1-yl)ethan-1-one]",B (25 μM<EC99≤100 μM),B (25 μM<EC99≤100 μM),B (25 μM<EC99≤100 μM),S (EC99≤12.5 μM),A (12.5 μM<EC99≤25 μM)
"CCOc1cccc(F)c1CN1CCN(C(=O)[C@H](N)C2CCN(CCc3cc(C)ccc3-c3ccccc3)CC2)CC1 [Example 81, Hydrobromide of (R)-2-amino-1-(4-(2-ethoxy-6-fluorobenzyl)piperazin-1-yl)-2-(1-(2-(4-methyl-[1,1′-biphenyl]-2-yl)ethyl)piperidin-4-yl)ethan-1-one]",B (25 μM<EC99≤100 μM),B (25 μM<EC99≤100 μM),B (25 μM<EC99≤100 μM),S (EC99≤12.5 μM),S (EC99≤12.5 μM)
"CCOc1cccc(F)c1CN1CCN(C(=O)[C@H](N)C2CCN(CCc3cc(C(F)(F)F)ccc3-c3ccccc3)CC2)CC1 [Example 83, Hydrobromide of (R)-2-amino-1-(4-(2-ethoxy-6-fluorobenzyl)piperazin-1-yl)-2-(1-(2-(4-(trifuluoromethyl)-[1,1′-biphenyl]-2-yl)ethyl)piperidin-4-yl) ethan-1-one]",B (25 μM<EC99≤100 μM),B (25 μM<EC99≤100 μM),B (25 μM<EC99≤100 μM),B (25 μM<EC99≤100 μM),B (25 μM<EC99≤100 μM)
"CCOc1cccc(F)c1CN1CCN(C(=O)[C@H](N)C2CCN(CCc3cc(OC(F)(F)F)ccc3-c3ccccc3Cl)CC2)CC1 [Example 86, Hydrobromide of (R)-2-amino-2-(1-(2-(2′-chloro-4-(trifluoromethoxy)-[1,1′-biphenyl]-2-yl)ethyl)piperidin-4-yl)-1-(4-(2-ethoxy-6-fluorobenzyl)piperazin-1-yl)ethan-1-one]",B (25 μM<EC99≤100 μM),B (25 μM<EC99≤100 μM),B (25 μM<EC99≤100 μM),B (25 μM<EC99≤100 μM),B (25 μM<EC99≤100 μM)
"CCOc1cccc(F)c1CN1CCN(C(=O)[C@H](N)C2CCN(CCc3cc(Cl)ccc3C3=CCCNC3)CC2)CC1 [Example 88, Hydrobromide of (R)-2-amino-2-(1-(5-chloro-2-(1,2,5,6-tetrahydropyridin-3-yl)phenethyl)piperidin-4-yl)-1-(4-(2-ethoxy-6-fluorobenzyl)piperazin-1-yl) ethan-1-one]",C (100 μM<EC99),C (100 μM<EC99),B (25 μM<EC99≤100 μM),S (EC99≤12.5 μM),S (EC99≤12.5 μM)
